From ChEMBL document CHEMBL1770068, “Pharmacophore-based virtual screening and Bayesian model for the identification of potential human leukotriene A4 hydrolase inhibitors” (Eur J Med Chem, 2011) come the findings set out here.

pIC50: −log10 of the molar value.

The target of this assay is T1, Leukotriene A-4 hydrolase (Homo sapiens, UniProt P09960).
T1 sequence (P09960 whole entry): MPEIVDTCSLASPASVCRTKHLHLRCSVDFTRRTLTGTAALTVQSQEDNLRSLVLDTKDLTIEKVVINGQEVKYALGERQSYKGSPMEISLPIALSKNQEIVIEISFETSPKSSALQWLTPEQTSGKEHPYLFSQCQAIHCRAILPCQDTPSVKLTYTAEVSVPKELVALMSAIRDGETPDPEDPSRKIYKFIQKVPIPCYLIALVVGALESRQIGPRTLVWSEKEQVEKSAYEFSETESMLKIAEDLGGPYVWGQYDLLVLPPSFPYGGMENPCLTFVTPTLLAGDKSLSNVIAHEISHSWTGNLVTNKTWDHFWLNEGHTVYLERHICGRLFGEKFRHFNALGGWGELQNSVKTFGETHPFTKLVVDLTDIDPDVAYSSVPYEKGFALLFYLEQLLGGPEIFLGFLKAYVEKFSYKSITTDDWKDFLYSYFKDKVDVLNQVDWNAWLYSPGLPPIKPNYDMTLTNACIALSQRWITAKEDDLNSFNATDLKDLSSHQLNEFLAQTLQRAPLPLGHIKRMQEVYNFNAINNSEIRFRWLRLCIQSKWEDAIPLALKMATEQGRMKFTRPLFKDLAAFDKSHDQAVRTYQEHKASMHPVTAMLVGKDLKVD
For the compound `CN(CCCOc1ccc(Oc2ccc(-c3ccccc3)cc2)cc1)CCC(=O)O`, the negative-log IC50 (pIC50) is 9.30. In the case of `O=C(O)c1ccc(CN2CC3CCCC2C(Nc2ccc(Oc4ccc(-c5ccccc5)cc4)cc2)C3)cc1` (stereo not given), the pIC50 is 8.30. In turn, `O=C(O)c1ccc(CN2CC3CCCC2C(Nc2ccc(Oc4nc5ccccc5s4)cc2)C3)cc1` (stereo not given) gave a negative-log IC50 (pIC50) of 8.05. `CC(NC(=O)C(CC(=O)O)Cc1ccccc1)C(=O)O` (stereo not given) had a pIC50 of 6.52. `O=C(CC(Cc1ccccc1)C(=O)N1CCCCC1C(=O)O)NO` (stereo not given) showed a negative-log IC50 (pIC50) of 5.74. This pIC50 lies 0.78 log units lower than the previous one.
